Measurements reported in patent US9238656B2, “Imidazo[4,5-b]pyridine derivatives as ALK and JAK modulators for the treatment of proliferative disorders” (priority 2012, dated 2016).
pIC50: −log10 of the molar value.

Columns and labels:
[1] = 30 mg BID, kidney allograft recipients; cited from earlier work
[2] = biological target: baculovirus-expressed JAK2 kinase (Homo sapiens, UniProt O60674); experiment: biochemical; settings: 0.2 μM ATP; read-out: JAK2 Potency
Method in brief: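 IC50 derived by variable-slope sigmoidal fit of percent inhibition against log compound concentration. Baculovirus-expressed JAK2 (15 ng/mL) phosphorylated a plate-bound biotinylated 15-mer peptide for 20 min at room temperature; detection by time-resolved fluorescence.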

[3] = biological target: baculovirus-expressed ALK (Homo sapiens, UniProt Q9UM73); experiment: ALK kinase inhibition, TRF/ELISA; assay type: biochemical; settings: read-out: ALK Potency
Chain of baculovirus-expressed ALK (Q9UM73 19-1620): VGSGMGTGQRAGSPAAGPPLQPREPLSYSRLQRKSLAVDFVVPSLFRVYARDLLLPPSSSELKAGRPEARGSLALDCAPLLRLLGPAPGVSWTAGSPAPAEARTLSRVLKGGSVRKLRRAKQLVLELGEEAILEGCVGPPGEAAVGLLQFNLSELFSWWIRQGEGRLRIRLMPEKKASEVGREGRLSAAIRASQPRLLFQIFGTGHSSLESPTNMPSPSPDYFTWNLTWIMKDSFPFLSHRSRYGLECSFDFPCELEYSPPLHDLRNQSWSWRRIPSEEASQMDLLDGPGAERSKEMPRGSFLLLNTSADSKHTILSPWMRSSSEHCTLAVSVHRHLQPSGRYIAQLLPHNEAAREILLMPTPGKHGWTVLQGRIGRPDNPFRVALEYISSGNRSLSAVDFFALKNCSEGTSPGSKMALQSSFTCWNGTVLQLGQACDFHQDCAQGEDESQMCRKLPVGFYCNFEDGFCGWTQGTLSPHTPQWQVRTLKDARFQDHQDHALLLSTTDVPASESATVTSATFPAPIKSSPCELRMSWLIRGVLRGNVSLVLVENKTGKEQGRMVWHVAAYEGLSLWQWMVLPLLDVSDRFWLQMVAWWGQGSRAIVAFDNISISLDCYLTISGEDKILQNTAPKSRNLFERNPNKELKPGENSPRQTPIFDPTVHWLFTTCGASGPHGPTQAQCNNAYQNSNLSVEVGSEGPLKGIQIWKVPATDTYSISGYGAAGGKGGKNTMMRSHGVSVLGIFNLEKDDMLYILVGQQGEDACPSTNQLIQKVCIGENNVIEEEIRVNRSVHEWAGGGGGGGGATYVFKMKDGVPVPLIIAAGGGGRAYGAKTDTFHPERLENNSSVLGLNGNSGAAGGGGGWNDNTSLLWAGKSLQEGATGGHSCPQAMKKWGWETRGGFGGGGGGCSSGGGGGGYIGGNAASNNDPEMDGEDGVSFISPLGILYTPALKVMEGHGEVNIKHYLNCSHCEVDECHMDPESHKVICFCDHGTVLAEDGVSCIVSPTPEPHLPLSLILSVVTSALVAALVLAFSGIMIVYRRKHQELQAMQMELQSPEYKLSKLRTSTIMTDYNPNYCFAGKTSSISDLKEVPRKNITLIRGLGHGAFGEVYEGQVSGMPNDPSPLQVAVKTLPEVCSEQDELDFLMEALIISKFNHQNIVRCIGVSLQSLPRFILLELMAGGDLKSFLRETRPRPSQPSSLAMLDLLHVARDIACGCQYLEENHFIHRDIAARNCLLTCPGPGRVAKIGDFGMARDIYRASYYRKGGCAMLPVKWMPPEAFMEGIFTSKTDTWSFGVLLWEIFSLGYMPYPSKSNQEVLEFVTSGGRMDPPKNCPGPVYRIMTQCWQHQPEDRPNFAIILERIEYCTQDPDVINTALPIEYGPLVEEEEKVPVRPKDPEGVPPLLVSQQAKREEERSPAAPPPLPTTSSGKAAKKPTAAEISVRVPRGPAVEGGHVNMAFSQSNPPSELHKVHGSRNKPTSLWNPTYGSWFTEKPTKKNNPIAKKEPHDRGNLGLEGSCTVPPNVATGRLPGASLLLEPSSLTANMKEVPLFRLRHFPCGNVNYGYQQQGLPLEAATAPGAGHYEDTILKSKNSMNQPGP
Method in brief: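 Eu-PT66 anti-phosphotyrosine TRF read-out measured phosphorylation of plate-bound GST-PLC-γ (coated at 10 μg/mL). The phosphorylation was driven by 30 ng/mL ALK for 15 minutes at 37° C.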

Chain of baculovirus-expressed JAK2 kinase (O60674 whole entry): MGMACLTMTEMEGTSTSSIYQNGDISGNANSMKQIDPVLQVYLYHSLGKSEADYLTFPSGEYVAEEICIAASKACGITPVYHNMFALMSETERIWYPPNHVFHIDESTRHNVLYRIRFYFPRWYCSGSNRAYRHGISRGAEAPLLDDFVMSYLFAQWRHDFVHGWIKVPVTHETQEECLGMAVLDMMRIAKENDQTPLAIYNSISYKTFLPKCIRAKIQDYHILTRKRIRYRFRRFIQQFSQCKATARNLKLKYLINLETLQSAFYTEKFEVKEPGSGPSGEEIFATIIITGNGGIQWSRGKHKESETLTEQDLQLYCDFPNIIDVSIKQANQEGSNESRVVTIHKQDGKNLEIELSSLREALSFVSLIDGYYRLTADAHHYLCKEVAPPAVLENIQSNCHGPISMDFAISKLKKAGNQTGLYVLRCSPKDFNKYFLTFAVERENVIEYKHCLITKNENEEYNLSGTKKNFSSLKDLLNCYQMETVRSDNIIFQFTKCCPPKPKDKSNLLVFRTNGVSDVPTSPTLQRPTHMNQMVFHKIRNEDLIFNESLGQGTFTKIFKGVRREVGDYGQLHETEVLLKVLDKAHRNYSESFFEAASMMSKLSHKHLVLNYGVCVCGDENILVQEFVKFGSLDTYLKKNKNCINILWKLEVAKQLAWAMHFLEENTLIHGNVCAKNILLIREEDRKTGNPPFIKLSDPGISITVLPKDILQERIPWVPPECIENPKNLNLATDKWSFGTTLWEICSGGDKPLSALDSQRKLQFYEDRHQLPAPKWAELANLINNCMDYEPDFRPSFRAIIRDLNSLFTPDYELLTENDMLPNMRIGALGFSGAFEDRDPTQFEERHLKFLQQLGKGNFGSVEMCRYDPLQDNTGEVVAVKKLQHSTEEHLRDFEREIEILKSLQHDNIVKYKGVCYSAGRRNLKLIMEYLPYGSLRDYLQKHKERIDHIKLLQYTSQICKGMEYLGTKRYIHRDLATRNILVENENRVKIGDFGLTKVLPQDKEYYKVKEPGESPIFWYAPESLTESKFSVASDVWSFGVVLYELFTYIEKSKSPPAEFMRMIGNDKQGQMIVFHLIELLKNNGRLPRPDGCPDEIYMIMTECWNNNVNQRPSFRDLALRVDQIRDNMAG

melting point [°C] | pIC50 [2] | pIC50 [3] | Compound | subjects developed polyoma-associated nephropathy [1] [%]
236 to 238 | 5.00 to 6.00 | < 5.00 | Cn1cc(-c2nc3c(N[C@H]4[C@@H](C(N)=O)[C@@H]5C=C[C@H]4C5)ccnc3[nH]2)cn1 [XCIV, (1S,2S,3R,4R)-3-[2-(1-Methyl-1H-pyrazol-4-yl)-3H-imidazo[4,5-b]pyridin-7-ylamino]-bicyclo[2.2.1]hept-5-ene-2-carboxylic acid amide] | 
185 to 195 | < 5.00 | 6.00 to 7.00 | COc1cc(N2CCC(N3CCN(C)CC3)CC2)ccc1-c1nc2c(N[C@H]3[C@@H](C(N)=O)[C@@H]4C=C[C@H]3C4)ccnc2[nH]1 [Compound XCIX, (1S,2S,3R,4R)-3-(2-{2-Methoxy-4-[4-(4-methyl-piperazin-1-yl)-piperidin-1-yl]-phenyl}-3H-imidazo[4,5-b]pyridin-7-ylamino)-bicyclo[2.2.1]hept-5-ene-2-carboxylic acid amide] | 
142 to 146 | > 7.00 | > 7.00 | COc1cc(CN2CCN(C[C@H](C)O)CC2)ccc1-c1nc2c(N[C@H]3[C@@H](C(N)=O)[C@@H]4C=C[C@H]3C4)c(Cl)cnc2[nH]1 [Compound XLIII, (1S,2S,3R,4R)-3-(6-Chloro-2-{4-[4-((S)-2-hydroxypropyl)-piperazin-1-ylmethyl]-2-methoxyphenyl}-3H-imidazo[4,5-b]pyridine-7-ylamino)-bicyclo[2.2.1]hept-5-ene-2-carboxylic acid amide] | 
133 to 137 | > 7.00 | > 7.00 | COc1c(CN2CCOCC2)cccc1-c1nc2c(N[C@H]3[C@@H](C(N)=O)[C@@H]4C=C[C@H]3C4)c(Cl)cnc2[nH]1 [Compound LIII, (1S,2S,3R,4R)-3-[6-Chloro-2-(2-methoxy-3-morpholin-4-ylmethyl-phenyl)-3H-imidazo[4,5-b]pyridine-7-ylamino]-bicyclo[2.2.1]hept-5-ene-2-carboxylic acid amide] | 
231 to 232 | > 7.00 | 6.00 to 7.00 | NC(=O)[C@@H]1[C@H](Nc2c(Br)cnc3[nH]c(-c4ccoc4)nc23)[C@H]2C=C[C@@H]1C2 [Compound CVIII, (1S,2S,3R,4R)-3-(6-Bromo-2-furan-3-yl-3H-imidazo[4,5-b]pyridin-7-ylamino)-bicyclo[2.2.1]hept-5-ene-2-carboxylic acid amide] | 
200 to 204 | 5.00 to 6.00 | < 5.00 | CN(C)c1cccc(-c2nc3c(N[C@H]4[C@@H](C(N)=O)[C@@H]5C=C[C@H]4C5)ccnc3[nH]2)c1 [Compound LXXXVII, (1S,2S,3R,4R)-3-[2-(3-Dimethylamino-phenyl)-3H-imidazo[4,5-b]pyridin-7-ylamino]-bicyclo[2.2.1]hept-5-ene-2-carboxylic acid amide] | 
288 to 290 | > 7.00 | > 7.00 | NC(=O)[C@@H]1[C@H](Nc2c(Br)cnc3[nH]c(-c4ccc(N5CCOCC5)nc4)nc23)[C@H]2C=C[C@@H]1C2 [Compound CXII, (1S,2S,3R,4R)-3-[6-Bromo-2-(6-morpholin-4-yl-pyridin-3-yl)-3H-imidazo[4,5-b]pyridin-7-ylamino]-bicyclo[2.2.1]hept-5-ene-2-carboxylic acid amide] | 
245 to 251 | 5.00 to 6.00 | < 5.00 | CN(C)c1ccc(-c2nc3c(N[C@H]4[C@@H](C(N)=O)[C@@H]5C=C[C@H]4C5)ccnc3[nH]2)cc1 [Compound LXXXVI, (1S,2S,3R,4R)-3-[2-(4-Dimethylamino-phenyl)-3H-imidazo[4,5-b]pyridin-7-ylamino]-bicyclo[2.2.1]hept-5-ene-2-carboxylic acid amide] | 
220 to 221 | > 7.00 | > 7.00 | CN(C)c1cccc(-c2nc3c(N[C@H]4[C@@H](C(N)=O)[C@@H]5C=C[C@H]4C5)c(Br)cnc3[nH]2)c1 [Compound LXXVII, (1S,2S,3R,4R)-3-[6-Bromo-2-(3-dimethylamino-phenyl)-3H-imidazo[4,5-b]pyridin-7-ylamino]-bicyclo[2.2.1]hept-5-ene-2-carboxylic acid amide] | 
240 to 244 | 5.00 to 6.00 | < 5.00 | NC(=O)[C@@H]1[C@H](Nc2ccnc3[nH]c(-c4cccc(CN5CCOCC5)c4)nc23)[C@H]2C=C[C@@H]1C2 [Compound XCI, (1S,2S,3R,4R)-3-[2-(3-Morpholin-4-ylmethyl-phenyl)-3H-imidazo[4,5-b]pyridin-7-ylamino]-bicyclo[2.2.1]hept-5-ene-2-carboxylic acid amide] | 
240 to 244 | 5.00 to 6.00 | < 5.00 | NC(=O)[C@@H]1[C@H](Nc2ccnc3[nH]c(-c4ccc(CN5CCOCC5)cc4)nc23)[C@H]2C=C[C@@H]1C2 [Compound XC, (1S,2S,3R,4R)-3-[2-(4-Morpholin-4-ylmethyl-phenyl)-3H-imidazo[4,5-b]pyridin-7-ylamino]-bicyclo[2.2.1]hept-5-ene-2-carboxylic acid amide] | 
190 | 5.00 to 6.00 | 5.00 to 6.00 | NC(=O)[C@@H]1[C@H](Nc2c(Br)cnc3[nH]c(-c4cccnc4N4CCCC4)nc23)[C@H]2C=C[C@@H]1C2 [Compound CV, (1S,2S,3R,4R)-3-[6-Bromo-2-(2-pyrrolidin-1-yl-pyridin-3-yl)-3H-imidazo[4,5-b]pyridin-7-ylamino]-bicyclo[2.2.1]hept-5-ene-2-carboxylic acid amide] | 

The next lines start with the compound.

Compound | melting point [°C] | pIC50 [2] | pIC50 [3] | subjects developed polyoma-associated nephropathy [1] [%]
C[C@@H]1CCN(C(=O)CC#N)C[C@@H]1N(C)c1ncnc2[nH]ccc12 [CP-690,550] |  |  |  | 20
NC(=O)[C@@H]1[C@H](Nc2c(Cl)cnc3[nH]c(-c4ccc(C(=O)NCC(=O)O)cc4)nc23)[C@H]2C=C[C@@H]1C2 [Compound CCXXVIII, 2-(4-(7-((1R,2R,3S,4S)-3-carbamoylbicyclo[2.2.1]hept-5-en-2-ylamino)-6-chloro-3H-imidazo[4,5-b]pyridine-2-yl)benzamido)acetic acid] | 291 | > 7.00 | 6.00 to 7.00 | 
CC(C)(C)OC(=O)N1CCCC(c2nc3c(N[C@H]4[C@@H](C(N)=O)[C@@H]5C=C[C@H]4C5)c(Br)cnc3[nH]2)C1 (stereo partly drawn) [Compound LXXXII, 3-[6-Bromo-7-((1R,2R,3S,4S)-3-carbamoyl-bicyclo[2.2.1]hept-5-en-2-ylamino)-3H-imidazo[4,5-b]pyridin-2-yl]-piperidine-1-carboxylic acid tert-butyl] | 172 to 177 | 6.00 to 7.00 | 6.00 to 7.00 | 
CN(C)c1ccc(-c2nc3c(N[C@H]4[C@@H](C(N)=O)[C@@H]5C=C[C@H]4C5)c(Br)cnc3[nH]2)cc1 [Compound LXXVI, (1S,2S,3R,4R)-3-[6-Bromo-2-(4-dimethylamino-phenyl)-3H-imidazo[4,5-b]pyridin-7-ylamino]-bicyclo[2.2.1]hept-5-ene-2-carboxylic acid amide] | 264 to 265 | > 7.00 | > 7.00 | 
COc1cc(C2CCN(C[C@@H](C)O)CC2)ccc1-c1nc2c(N[C@H]3[C@@H](C(N)=O)[C@@H]4C=C[C@H]3C4)c(Cl)cnc2[nH]1 [Compound CXVI] | > 120 | > 7.00 | > 7.00 | 
Cc1ccc(-c2nc3c(N[C@H]4[C@@H](C(N)=O)[C@@H]5C=C[C@H]4C5)c(Br)cnc3[nH]2)o1 [Compound CX, (1S,2S,3R,4R)-3-[6-Bromo-2-(5-methyl-furan-2-yl)-3H-imidazo[4,5-b]pyridin-7-ylamino]-bicyclo[2.2.1]hept-5-ene-2-carboxylic acid amide] | 200 to 201 | > 7.00 | 6.00 to 7.00 | 
COc1cc(N2CCC(N3CCOCC3)CC2)ccc1-c1nc2c(N[C@H]3[C@@H](C(N)=O)[C@@H]4C=C[C@H]3C4)c(Br)cnc2[nH]1 [Compound XCVII, (1S,2S,3R,4R)-3-{6-Bromo-2-[2-methoxy-4-(4-morpholin-4-yl-piperidin-1-yl)-phenyl]-3H-imidazo[4,5-b]pyridin-7-ylamino}-bicyclo[2.2.1]hept-5-ene-2-carboxylic acid amide] | 185 to 195 | > 7.00 | > 7.00 | 
C=CCc1ccc(-c2nc3c(N[C@H]4[C@@H](C(N)=O)[C@@H]5C=C[C@H]4C5)c(Cl)cnc3[nH]2)c(OC)c1 [Compound LVI, (1S,2S,3R,4R)-3-[2-(4-Allyl-2-methoxy-phenyl)-6-chloro-3H-imidazo[4,5-b]pyridine-7-ylamino]-bicyclo[2.2.1]hept-5-ene-2-carboxylic acid amide] | 123 to 126 | > 7.00 | > 7.00 | 
